Source: patent publication US6376497B1, “Antifungal azole derivatives having a fluorinated vinyl group and process for preparing same” (Korea Research Institute of Chemical Technology, priority 1999, dated 2002)
≈ marks a conversion by molar mass, not a printed value. Read-outs that look alike come from different tables or passages of the source.

How the values were obtained:
Assay in all cases: In vitro antifungal activity, microbroth dilution MIC
Format in all cases: cell-based
[1] = system: Trichophyton mentagrophytes B. 32663; conditions: Trichophyton mentagrophytes
How it was run: (§1)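 Broth microdilution adapted from NCCLS M27, in RPMI-1640 with 0.165 M MOPS, pH 7.0. Yeast or mould inoculum at 2×10^3 CFU/ml was mixed 1:1 with DMSO-derived compound solutions (200 to 0.10 μg/ml before mixing) and incubated at 35 °C for 4 to 48 h. MIC was the concentration showing no growth.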

[2] = system: Cryptococcus neoformans A. 34144; conditions: Cryptococcus neoformans
How it was run: as §1

[3] = system: Aspergillus furnigatus B. 19119; conditions: Aspergillus
How it was run: as §1

[4] = system: Candida parapsitosis A. 7330; conditions: Candida, 4 to 48 hours
How it was run: as §1

[5] = system: Candida tropicalis A. 13803; conditions: Candida tropicalis, 4 to 48 hours
How it was run: as §1

[6] = system: Cryptococcus neoformans IFM. 40092; conditions: Cryptococcus neoformans
How it was run: as §1

[7] = system: Torulopsis glabrata B. 16205; conditions: Nakaseomyces glabratus, 4 to 48 hours
How it was run: as §1

Candida krusei K. 11655 = conditions: Pichia kudriavzevii, 4 to 48 hours
How it was run: as §1

[8] = system: Candida albicans A. 10231; conditions: Candida albicans, 4 to 48 hours
How it was run: as §1

[9] = system: Candida albicans IFO. 1385; conditions: Candida albicans, 4 to 48 hours
How it was run: as §1

[10] = system: Cryptococcus neoformans B. 42419; conditions: Cryptococcus neoformans, 4 to 48 hours
How it was run: as §1

[11] = system: Aspergillus niger A. 16404; conditions: Aspergillus niger
How it was run: as §1

[12] = system: Trichophyton mentagrophytes A. 9129; conditions: Trichophyton mentagrophytes
How it was run: as §1

Candida albicans C1-2 = conditions: Candida albicans, 4 to 48 hours
How it was run: as §1

[13] = B.32663, RPMI-1640, 35° C., 4 to 48 hours, no growth observed, read-out: Minimal inhibitory concentration(MIC), T. mentagrophytes B. 32663
[14] = B.32663, RPMI-1640, 35° C., no growth observed, read-out: Minimal inhibitory concentration (MIC), T. mentagrophytes B. 32663
[15] = T. mentagrophytes B. 32663, RPMI-1640, 35° C., 4 to 48 hours, read-out: Minimal inhibitory concentration (MIC)
[16] = A.34144, RPMI-1640, 35° C., 4 to 48 hours, no growth observed, read-out: Minimal inhibitory concentration(MIC), Cry. neoformans A. 34144
[17] = A.34144, RPMI-1640, 35° C., no growth observed, read-out: Minimal inhibitory concentration (MIC), Cry. neoformans A. 34144
[18] = Cry. neoformans A. 34144, RPMI-1640, 35° C., 4 to 48 hours, read-out: Minimal inhibitory concentration (MIC)
[19] = A furnigatus B. 19119, RPMI-1640, 35° C., 4 to 48 hours, read-out: Minimal inhibitory concentration (MIC)
[20] = B.19119, RPMI-1640, 35° C., 4 to 48 hours, no growth observed, read-out: Minimal inhibitory concentration(MIC), A furnigatus B. 19119
[21] = B.19119, RPMI-1640, 35° C., no growth observed, read-out: Minimal inhibitory concentration (MIC), A furnigatus B. 19119
[22] = A.7330, RPMI-1640, 35° C., no growth observed, read-out: Minimal inhibitory concentration(MIC), C. parapsitosis A. 7330
[23] = C. parapsitosis A. 7330, RPMI-1640, 35° C., read-out: Minimal inhibitory concentration (MIC)
[24] = A.13803, RPMI-1640, 35° C., no growth observed, read-out: Minimal inhibitory concentration(MIC), C. tropicalis A. 13803
[25] = C. tropicalis A. 13803, RPMI-1640, 35° C., read-out: Minimal inhibitory concentration (MIC)
[26] = Cry. neoformans IFM. 40092, RPMI-1640, 35° C., 4 to 48 hours, read-out: Minimal inhibitory concentration (MIC)
[27] = IFM.40092, RPMI-1640, 35° C., 4 to 48 hours, no growth observed, read-out: Minimal inhibitory concentration(MIC), Cry. neoformans IFM. 40092
[28] = IFM.40092, RPMI-1640, 35° C., no growth observed, read-out: Minimal inhibitory concentration (MIC), Cry. neoformans IFM. 40092
[29] = B.16205, RPMI-1640, 35° C., no growth observed, read-out: Minimal inhibitory concentration(MIC), T. glabrata B. 16205
[30] = T. glabrata B. 16205, RPMI-1640, 35° C., read-out: Minimal inhibitory concentration (MIC)
[31] = C. krusei K. 11655, RPMI-1640, 35° C., read-out: Minimal inhibitory concentration (MIC)
[32] = K.11655, RPMI-1640, 35° C., no growth observed, read-out: Minimal inhibitory concentration(MIC), C. krusei K. 11655
[33] = A.10231, RPMI-1640, 35° C., no growth observed, read-out: Minimal inhibitory concentration(MIC), C. albicans A. 10231
[34] = C. albicans A. 10231, RPMI-1640, 35° C., read-out: Minimal inhibitory concentration (MIC)
[35] = C. albicans IFO. 1385, RPMI-1640, 35° C., read-out: Minimal inhibitory concentration (MIC)
[36] = IFO.1385, RPMI-1640, 35° C., no growth observed, read-out: Minimal inhibitory concentration(MIC), C. albicans IFO. 1385
[37] = B.42419, RPMI-1640, 35° C., no growth observed, read-out: Minimal inhibitory concentration(MIC), Cry. neoformans B. 42419
[38] = Cry. neoformans B. 42419, RPMI-1640, 35° C., read-out: Minimal inhibitory concentration (MIC)
[39] = A. niger A. 16404, RPMI-1640, 35° C., 4 to 48 hours, read-out: Minimal inhibitory concentration (MIC)
[40] = A.16404, RPMI-1640, 35° C., 4 to 48 hours, no growth observed, read-out: Minimal inhibitory concentration(MIC), A. niger A. 16404
[41] = A.16404, RPMI-1640, 35° C., no growth observed, read-out: Minimal inhibitory concentration (MIC), A. niger A. 16404
[42] = A.9129, RPMI-1640, 35° C., 4 to 48 hours, no growth observed, read-out: Minimal inhibitory concentration(MIC), T. mentagrophytes A. 9129
[43] = A.9129, RPMI-1640, 35° C., no growth observed, read-out: Minimal inhibitory concentration (MIC), T. mentagrophytes A. 9129
[44] = T. mentagrophytes A. 9129, RPMI-1640, 35° C., 4 to 48 hours, read-out: Minimal inhibitory concentration (MIC)
[45] = C12, C. albicans C1-2, RPMI-1640, 35° C., read-out: Minimal inhibitory concentration (MIC)
[46] = C12, RPMI-1640, 35° C., no growth observed, read-out: Minimal inhibitory concentration(MIC), C. albicans C1-2

`OC(Cn1cncn1)(Cn1cncn1)c1ccc(F)cc1F` [fluconazole, reference compound] was tested, and the MIC [1, 13] was 12.5 mg/L (≈ 40.8 µM), the MIC [1, 14] was 12.5 mg/L (≈ 40.8 µM) and the MIC [1, 15] was 12.5 mg/L (≈ 40.8 µM). It also gave an MIC [2, 16] of 12.5 mg/L (≈ 40.8 µM), an MIC [2, 17] of 12.5 mg/L (≈ 40.8 µM) and an MIC [2, 18] of 12.5 mg/L (≈ 40.8 µM). For the same compound, the MIC [3, 19] was > 100 mg/L, the MIC [3, 20] was > 100 mg/L and the MIC [3, 21] was > 100 mg/L. For the same compound, the MIC [4, 22] was 12.5 mg/L (≈ 40.8 µM), the MIC [4, 23] was 12.5 mg/L (≈ 40.8 µM) and the MIC [5, 24] was > 100 mg/L. For the same compound, the MIC [5, 25] was > 100 mg/L, the MIC [6, 26] was 3.13 mg/L (≈ 10.2 µM) and the MIC [6, 27] was 3.13 mg/L (≈ 10.2 µM). For the same compound, the MIC [6, 28] was 3.13 mg/L (≈ 10.2 µM), the MIC [7, 29] was 100 mg/L (≈ 327 µM) and the MIC [7, 30] was 100 mg/L (≈ 327 µM). For the same compound, the MIC (Candida krusei K. 11655; [31]) was 25 mg/L (≈ 81.6 µM), the MIC (Candida krusei K. 11655; [32]) was 25 mg/L (≈ 81.6 µM) and the MIC [8, 33] was > 100 mg/L. For the same compound, the MIC [8, 34] was > 100 mg/L, the MIC [9, 35] was 12.5 mg/L (≈ 40.8 µM) and the MIC [9, 36] was 12.5 mg/L (≈ 40.8 µM). The MIC [10, 37] was 25 mg/L (≈ 81.6 µM), the MIC [10, 38] was 25 mg/L (≈ 81.6 µM) and the MIC [11, 39] was > 100 mg/L. For the same compound, the MIC [11, 40] was > 100 mg/L, the MIC [11, 41] was > 100 mg/L and the MIC [12, 42] was 50 mg/L (≈ 163 µM). For the same compound, the MIC [12, 43] was 50 mg/L (≈ 163 µM), the MIC [12, 44] was 50 mg/L (≈ 163 µM) and the MIC (Candida albicans C1-2; [45]) was > 100 mg/L. For the same compound, the MIC (Candida albicans C1-2; [46]) was > 100 mg/L.
With `CCC(C)n1ncn(-c2ccc(N3CCN(c4ccc(OCC5COC(Cn6cncn6)(c6ccc(Cl)cc6Cl)O5)cc4)CC3)cc2)c1=O` (centres unmarked) [itraconazole, reference compound] the MIC [1, 13] was ≤ 0.1 mg/L, the MIC [1, 14] was ≤ 0.1 mg/L and the MIC [1, 15] was ≤ 0.1 mg/L. It also gave an MIC [2, 16] of 0.39 mg/L (≈ 0.553 µM), an MIC [2, 17] of 0.39 mg/L (≈ 0.553 µM) and an MIC [2, 18] of 0.39 mg/L (≈ 0.553 µM). For the same compound, the MIC [3, 19] was ≤ 0.1 mg/L, the MIC [3, 20] was ≤ 0.1 mg/L and the MIC [3, 21] was ≤ 0.1 mg/L. The MIC [4, 22] was 0.78 mg/L (≈ 1.11 µM), the MIC [4, 23] was 0.78 mg/L (≈ 1.11 µM) and the MIC [5, 24] was > 100 mg/L. The MIC [5, 25] was > 100 mg/L, the MIC [6, 26] was ≤ 0.1 mg/L and the MIC [6, 27] was ≤ 0.1 mg/L. For the same compound, the MIC [6, 28] was ≤ 0.1 mg/L, the MIC [7, 29] was 50 mg/L (≈ 70.9 µM) and the MIC [7, 30] was 50 mg/L (≈ 70.9 µM). For the same compound, the MIC (Candida krusei K. 11655; [31]) was 0.39 mg/L (≈ 0.553 µM), the MIC (Candida krusei K. 11655; [32]) was 0.39 mg/L (≈ 0.553 µM) and the MIC [8, 33] was > 100 mg/L. The MIC [8, 34] was > 100 mg/L, the MIC [9, 35] was 1.56 mg/L (≈ 2.21 µM) and the MIC [9, 36] was 1.56 mg/L (≈ 2.21 µM). The MIC [10, 37] was 0.39 mg/L (≈ 0.553 µM), the MIC [10, 38] was 0.39 mg/L (≈ 0.553 µM) and the MIC [11, 39] was 1.56 mg/L (≈ 2.21 µM). The MIC [11, 40] was 1.56 mg/L (≈ 2.21 µM), the MIC [11, 41] was 1.56 mg/L (≈ 2.21 µM) and the MIC [12, 42] was ≤ 0.1 mg/L. The MIC [12, 43] was ≤ 0.1 mg/L, the MIC [12, 44] was ≤ 0.1 mg/L and the MIC (Candida albicans C1-2; [45]) was > 100 mg/L. For the same compound, the MIC (Candida albicans C1-2; [46]) was > 100 mg/L.
